The values below come from publication PMC8652888, “Angiogenesis, Anti-Tumor, and Anti-Metastatic Activity of Novel α-Substituted Hetero-Aromatic Chalcone Hybrids as Inhibitors of Microtubule Polymerization” (Frontiers in Chemistry, 2021).

Where “and” joins values, the source holds several entries; their conditions need not be identical. Equal values may be shown once. Read-outs that look alike come from different tables or passages of the source.

Series [1] has as its system U937. The series can be described thus: Antiproliferative activity, CCK-8 assay. Format: cell-based. In a few lines: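 U937 cells in log phase seeded at 8,000/well with compound-containing medium and incubated 72 h at 37 °C, 5% CO2. Proliferation read by CCK-8 dye after a further 3–4 h incubation, against blank-medium wells.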
In general terms: Tetrazolium dyes change colour on reduction, which living cells bring about.

For series [2], the system named is tubulin. The series can be described thus: Tubulin polymerization in vitro (fluorescence). Format: biochemical. As to conditions: 37°C; read-out: IC50, inhibition of tubulin polymerization.
Procedure: Data are presented as the mean ± SD from three independent experiments. **p < 0.01 vs. the vehicle control.
An in vitro assay was performed to monitor the time-dependent polymerization of tubulin into microtubules. The 96-well cell culture plate was incubated at 37°C for 10 min, and test compounds and reference compounds were prepared with a 10× analyte stock solution. Five microliters of 10× analyte stock solution was added to a 96-well plate, and the microplate reader was heated at 37°C for 1 min. Immediately 85 μl of Tubulin Stock was drawn and mixed with the above mixture to prepare the tubulin reaction solution, and 50 μl of the tubulin reaction solution was to each well. The multifunctional microplate reader measured the absorbance, and the measured fluorescence value represents the level of tubulin in the polymerized state in the reaction solution.
In series [3] the test system is taxol-resistant MCF7 cells (MCF7/Tax). The series can be described thus: Growth inhibition of taxol-resistant cells. The format is cell-based, human.
For series [4], the system named is HUVECs. The series can be described thus: Tube formation assay. As to conditions: 1, 5, 25 μM, 6–8 h. Format: cell-based, human. Here is the method:
HUVECs (human umbilical vein endothelial cells) grown on Matrigel were commonly used as a tube formation model and also a widely studied human endothelial cell type in angiogenesis, for their ability to alter their shape to resemble capillaries ([Aranda and Owen, 2009]). […] We therefore examined the effects of 7m on HUVEC tube formation to evaluate its potential effect on angiogenesis.
The HUVECs were seeded in 96-well plates and cultured for 24 h, and then incubated with 1, 5, and 25 μM 7m. The EC Matrigel matrix was thawed overnight at 4°C. The HUVECs, suspended in F12K, were seeded in a 96-well culture plate at a cell density of 10,000 cells/well after 45 min of Matrigel polymerization at 37°C. Then they were treated with different concentrations of 7m or carrier at 37°C for 6–8 h. Then the morphological changes of the formed cells and tubes under an inverted microscope were observed, and pictures were taken.

The subject of series [5] is HUVECs. The series can be described thus: Wound healing assay. Particulars: 1, 5, 25 μΜ, 48 h. Format: cell-based, human. Here is the method: A wound healing assay was, thus, performed to evaluate the capacity of 7m to inhibit cell motility. […] Then the invasion inhibitory activities of 7m were further detected using Transwell assay with HUVECs cells treated with 0, 1, 5, and 25 μΜ of 7m. In this assay, […] were seeded into upper chambers which were pre-coated with Matrigel matrix in order to evaluate the cellular invasion.
MCF-7 cells and HUVECs cells were grown in 24-well plates at a density of 1 × 10^6 cells per well for 24 h. Scratches were made in confluent monolayers by […] pipette tips. The media containing different concentrations of 7m were added to the Petri dishes. […] The migration distance of cells migrated to the wound area was measured manually.

Series [6] relates to MCF-7 cells. The series can be described thus: Transwell Matrigel invasion assay. Format: cell-based, human. Here is the method:
In order to evaluate whether 7m could suppress migration and invasion, the MCF-7 cell culture was performed by wound healing and Transwell Matrigel assay, respectively.
The upper chamber of the Transwell chamber was filled with cells resuspended in serum-free medium, 6 × 10^4 cells per well, 100 μl per well, and the lower chamber was added with 10% FBS-containing medium prepared with different concentrations of 7m. The cells were allowed to migrate for 48 h at 37°C in an atmosphere of 5% CO2. Then the migration of cells to the underside of the filter was determined by crystal violet staining.

The subject of series [7] is intersegmental vessel (ISV) development, Tg (flk: EGFP) embryos. The series can be described thus: Anti-angiogenic effect on zebrafish embryos. Format: in vivo. An excerpt:
Zebrafish embryo is a powerful model to study human diseases, and the transgenic zebrafish labeled with green fluorescent protein (GFP) in endothelial cells are always used to analyze angiogenesis activity in vivo ([Rocke et al., 2009]). Accordingly, we treated the transgenic Tg (flk: EGFP) embryos with different doses of 7m (0.5, 1, 2.5, 5 μΜ), and 30 hpf zebrafish was imaged by fluorescent microscopy to examine the effect on intersegmental vessel (ISV) development. […] When the concentration of 7m was elevated to 2.5 μΜ, the […] effect was more pronounced as evidenced by the 3.5- to 4-fold reduction in the number of SIVs.
The transgenic zebrafish Tg (flk: EGFP) embryos were paired normally and collected into a six-well plate (n = 30/well), then 1 ml of aquaculture water (0.2 g/L distilled water instant sea salt) was added and were raised at 28.5°C. When the zebrafish embryos developed to 12 hpf, the indicated concentrations of 7m were added, and 30 embryos were selected for each concentration gradient and incubated at 28.5°C to 30 hpf. At 30 hpf, the zebrafish embryos were imaged and photographed under a fluorescence microscope to observe the growth of blood vessels in the body, and the number of intersegmental blood vessels (ISV) was recorded.

The test system of series [8] is MCF-7 cells implanted in zebrafish embryos. The series can be described thus: Zebrafish xenograft assay. Format: in vivo. Particulars: 2.5, 5, 7.5 μΜ, 72 h. Here is the method:
To examine the in vivo anti-tumor and anti-metastasis potency of 7m, we implanted Cell-Tracker Red CMTPX-labeled MCF-7 cells into the yolk of Tg (flk: EGFP) 48 hpf embryos, and different concentrations of 7m (2.5, 5, 7.5 μΜ) were added. The intensity of the red fluorescence is proportional to the size of the xenograft tumor. After 72 h, the effects of 7m on the tumor mass development and cancer cell metastasis were assessed by fluorescence microscopy. […] Without drug treatment, MCF-7 cells disseminated and migrated widely away from the original area, and some tumor cells even migrated into the blood vessels of the zebrafish tail at 72 hpf.
The tumor cells MCF-7 were labeled with Red CMTPX, and then the labeled tumor cells were digested and resuspended. A hundred labeled tumor cells per 1 nl were injected into the zebrafish embryos developed for 48 h. The zebrafish injected with tumor cells were incubated in an incubator at 28.5°C for about 1 h under the action of different concentrations of 7m and then were transferred to an incubator at 35°C.

As for “3-(benzofuran-6-yl)-2-methyl-1-(3,4,5-trimethoxyphenyl)prop-2-en-1-one [Compound 7m]”, the IC50 was 82 ± 2 nM in series [1] (72 h, triplicate, mean ± SD, read-out: IC50 ± SD, U937); 81.6 nM in series [1] (supplement raw data of table 2, read-out: IC50(U937)); 12200 nM in series [2]; 242 nM and 181 nM and 216 nM in series [3] (three single determinations, read-out: MCF-7/Taxol (raw data of table 3, IC50)); 213 ± 26 nM in series [3] (triplicate, read-out: IC50 ± SD, MCF7/Tax). The Resistant fold in series [3] ((IC50 MCF7/Tax)/(IC50 MCF7)) was determined as 1.2. Besides, the “width and length of tubule-like network formation” value in series [4] is recorded as “reduced in a concentration-dependent manner”. Also, the “closure of wound scratching” value in series [5] is reported as “obviously decreased the closure of wound scratching”. The MCF-7 cells invasion entry in series [6] was “hinder the MCF-7 cells invasion in a dose-dependent manner”. Also, the “number and length of SIVs vs vehicle control” value in series [7] (0.5 and 1 μΜ, 30 hpf) is listed as “slightly reduced”. Besides, in series [7] (doses ≥5 μM), the ISVs formations entry is on record as “seriously impaired”. Further, the “developmental toxicity in embryos” value in series [7] (doses ≥5 μM) is given as “developmental defects were observed”. Besides, the “fluorescence intensity and tumor size of MCF-7 cells vs vehicle” value in series [8] is “reduced the fluorescence intensity and tumor size”. Further, the “migration number of implanted MCF-7 cells” value in series [8] is given as “notably reduced in a dose-dependent manner”.
